In PubChem BioAssay AID248 (DTP/NCI, 2004):
“And” between values parts separate entries of the source, which are not always exact repeats. Equal values may be shown once. Toxic doses and inconclusive results are not listed. Rule as the data show it: active = T/C of 150% or more; inactive = T/C below 125%.

Test system: L1210 leukemia ip in BDF1 mice, survival T/C
Experiment: NCI In Vivo Anticancer Drug Screen. Data for tumor model L1210 Leukemia (intraperitoneal) in B6D2F1 (BDF1) mice
Conditions: endpoint: mean survival time, higher = longer survival
Method in brief: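 Value reflects the ratio of survival in compound-treated mice to survival in vehicle-treated controls, with both groups carrying the same transplanted tumor.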

[1] = dose: 100.0 mg/kg/injection, schedule: Q04DX002 (ip), vehicle: saline with Tween-80
[2] = dose: 200.0 mg/kg/injection, schedule: Q04DX002 (ip), vehicle: saline with Tween-80
[3] = dose: 400.0 mg/kg/injection, schedule: Q04DX002 (ip), vehicle: saline with Tween-80
[4] = dose: 100.0 mg/kg/injection, schedule: Q01DX009 (ip), vehicle: saline with Tween-80
[5] = dose: 200.0 mg/kg/injection, schedule: Q01DX009 (ip), vehicle: saline with Tween-80
[6] = dose: 400.0 mg/kg/injection, schedule: Q01DX009 (ip), vehicle: saline with Tween-80
[7] = dose: 100.0 mg/kg/injection, schedule: Q01DX009 (ip), vehicle: Klucel (hydroxypropylcellulose) (HPC)
[8] = dose: 100.0 mg/kg/injection, schedule: Q04DX003 (ip), vehicle: Klucel (hydroxypropylcellulose) (HPC)
[9] = dose: 200.0 mg/kg/injection, schedule: Q01DX009 (ip), vehicle: Klucel (hydroxypropylcellulose) (HPC)
[10] = dose: 200.0 mg/kg/injection, schedule: Q04DX003 (ip), vehicle: Klucel (hydroxypropylcellulose) (HPC)
[11] = dose: 400.0 mg/kg/injection, schedule: Q01DX009 (ip), vehicle: Klucel (hydroxypropylcellulose) (HPC)
[12] = dose: 400.0 mg/kg/injection, schedule: Q04DX003 (ip), vehicle: Klucel (hydroxypropylcellulose) (HPC)
[13] = dose: 100.0 mg/kg/injection, schedule: Q01DX001 (ip), vehicle: Klucel (hydroxypropylcellulose) (HPC)
[14] = dose: 200.0 mg/kg/injection, schedule: Q01DX001 (ip), vehicle: Klucel (hydroxypropylcellulose) (HPC)
[15] = dose: 400.0 mg/kg/injection, schedule: Q01DX001 (ip), vehicle: Klucel (hydroxypropylcellulose) (HPC)
[16] = dose: 100.0 mg/kg/injection, schedule: Q01DX009 (ip), vehicle: saline

Measured: T/C

Oc1ccc(Cl)cc1C=Nc1ccc2c(c1)OCO2
inactive: [1] 91 % of control | [2] 88 % of control | [3] 91 % of control

O=C1C=CC(=O)N1c1ccc(Br)c(Cl)c1
inactive: dose: 12.5 mg/kg/injection, schedule: Q04DX002 (ip), vehicle: other 121 % of control | dose: 25.0 mg/kg/injection, schedule: Q04DX002 (ip), vehicle: other 105 % of control | dose: 50.0 mg/kg/injection, schedule: Q04DX002 (ip), vehicle: other 112 % of control

CCOC(=O)c1cc(C(=O)OCC)c[n+](CCCl)c1
inactive: dose: 8.0 mg/kg/injection, schedule: Q01DX010 (ip), vehicle: other 104 % of control | dose: 16.0 mg/kg/injection, schedule: Q01DX010 (ip), vehicle: other 104 % of control | dose: 32.0 mg/kg/injection, schedule: Q01DX010 (ip), vehicle: other 111 % of control | dose: 64.0 mg/kg/injection, schedule: Q01DX010 (ip), vehicle: other 109 % of control | dose: 64.0 mg/kg/injection, schedule: Q01DX Z (ip), vehicle: other 105 % of control

CC(=O)Nc1ccc(S(=O)(=O)Nc2cc(Cl)ccc2Cl)cc1
inactive: [4] 103 % of control | [5] 102 % of control | [6] 97 % of control

COc1ccc2nc(NCN3C(=O)c4ccccc4C3=O)sc2c1
inactive: [4] 96 % of control | dose: 100.0 mg/kg/injection, schedule: Q04DX003 (ip), vehicle: acetone 88 % of control | [5] 95 % of control | dose: 200.0 mg/kg/injection, schedule: Q04DX003 (ip), vehicle: acetone 88 % of control | [6] 93 % of control | dose: 400.0 mg/kg/injection, schedule: Q04DX003 (ip), vehicle: acetone 90 % of control

Cc1c2ccccc2cc2cc[n+]3ccccc3c12
inactive: dose: 1.0 mg/kg/injection, schedule: Q01DX015 (ip), vehicle: carboxymethylcellulose (CMC) 102 % of control | dose: 2.0 mg/kg/injection, schedule: Q01DX015 (ip), vehicle: carboxymethylcellulose (CMC) 104 % of control | dose: 4.0 mg/kg/injection, schedule: Q01DX015 (ip), vehicle: carboxymethylcellulose (CMC) 98 % of control | dose: 5.0 mg/kg/injection, schedule: Q01DX001 (ip), vehicle: carboxymethylcellulose (CMC) 101 % of control | dose: 8.0 mg/kg/injection, schedule: Q01DX015 (ip), vehicle: carboxymethylcellulose (CMC) 102 % of control and 119 % of control | dose: 10.0 mg/kg/injection, schedule: Q01DX001 (ip), vehicle: carboxymethylcellulose (CMC) 101 % of control | dose: 16.0 mg/kg/injection, schedule: Q01DX015 (ip), vehicle: carboxymethylcellulose (CMC) 111 % of control | dose: 20.0 mg/kg/injection, schedule: Q01DX001 (ip), vehicle: carboxymethylcellulose (CMC) 110 % of control | dose: 20.0 mg/kg/injection, schedule: Q04DX003 (ip), vehicle: Klucel (hydroxypropylcellulose) (HPC) 110 % of control | dose: 40.0 mg/kg/injection, schedule: Q01DX001 (ip), vehicle: carboxymethylcellulose (CMC) 117 % of control | dose: 40.0 mg/kg/injection, schedule: Q04DX003 (ip), vehicle: Klucel (hydroxypropylcellulose) (HPC) 114 % of control

Cc1c([N+](=O)[O-])c(C)c([N+](=O)[O-])c(C(C)(C)C)c1[N+](=O)[O-]
inactive: [7] 93 % of control | [8] 92 % of control | [9] 94 % of control | [10] 100 % of control | [11] 96 % of control | [12] 94 % of control

COC(=O)C1(C(=O)OC)C2CCCCC21C (stereo not given)
inactive: [13] 103 % of control | [7] 102 % of control | [8] 106 % of control | [14] 102 % of control | [9] 101 % of control | [10] 106 % of control | [15] 95 % of control | [11] 102 % of control | [12] 101 % of control

O=C(NC(C(=O)O)c1ccccc1)OCc1ccccc1 (stereo not given)
inactive: [4] 111 % of control and 97 % of control | [5] 91 % of control and 92 % of control | [6] 89 % of control and 93 % of control

Cc1cccc(C)c1NC(=S)NNC(=O)c1ccncc1
inactive: [4] 97 % of control | [1] 101 % of control | [2] 96 % of control | [6] 100 % of control | [3] 101 % of control

CC(C)c1cc(C(C)C)c(C(=O)Oc2c(Br)cc(Br)cc2Br)c(C(C)C)c1
inactive: [4] 95 % of control | dose: 100.0 mg/kg/injection, schedule: Q04DX003 (ip), vehicle: saline with Tween-80 98 % of control | [5] 92 % of control | dose: 200.0 mg/kg/injection, schedule: Q04DX003 (ip), vehicle: saline with Tween-80 93 % of control | dose: 400.0 mg/kg/injection, schedule: Q04DX003 (ip), vehicle: saline with Tween-80 90 % of control

CC(C)(C)C1=CC(=O)C(Br)=C(N2C3C4CCC(C4)C32)C1=O (stereo not given)
inactive: [13] 110 % of control | [14] 96 % of control | [15] 94 % of control

C[n+]1cccc(C(=O)N/N=C/C=C/c2ccccc2)c1
inactive: dose: 50.0 mg/kg/injection, schedule: Q01DX009 (ip), vehicle: saline with Tween-80 96 % of control | [4] 100 % of control

CC(C)=CCC(=O)OC(CC=C(C)C)(c1ccccc1)C(C)CN(C)C (stereo not given)
inactive: dose: 25.0 mg/kg/injection, schedule: Q01DX009 (ip), vehicle: saline 100 % of control | dose: 50.0 mg/kg/injection, schedule: Q01DX009 (ip), vehicle: saline 90 % of control | [16] 89 % of control

CNc1ncnc2c1ncn2C1CC(CO)C(O)C1O (stereo not given)
inactive: [16] 98 % of control

COc1ccc(NC(=O)CCc2ccccc2)cc1
inactive: dose: 12.5 mg/kg/injection, schedule: Q01DX001 (ip), vehicle: Klucel (hydroxypropylcellulose) (HPC) 98 % of control | dose: 25.0 mg/kg/injection, schedule: Q01DX001 (ip), vehicle: Klucel (hydroxypropylcellulose) (HPC) 88 % of control | dose: 50.0 mg/kg/injection, schedule: Q01DX001 (ip), vehicle: Klucel (hydroxypropylcellulose) (HPC) 93 % of control | [13] 86 % of control | [14] 88 % of control | [15] 91 % of control

OCC(O)COc1ccc(OCc2ccccc2)cc1 (stereo not given)
inactive: dose: 12.5 mg/kg/injection, schedule: Q01DX009 (ip), vehicle: Klucel (hydroxypropylcellulose) (HPC) 94 % of control | dose: 25.0 mg/kg/injection, schedule: Q01DX009 (ip), vehicle: Klucel (hydroxypropylcellulose) (HPC) 102 % of control | dose: 50.0 mg/kg/injection, schedule: Q01DX009 (ip), vehicle: Klucel (hydroxypropylcellulose) (HPC) 93 % of control and 87 % of control

CC(C)N1C(=O)OC2(CCN(CCCSc3ccc(F)cc3)CC2)C1=O
inactive: [8] 103 % of control | [10] 103 % of control | [12] 103 % of control

COc1ccc2c(c1)sc(/C=C/c1ccc(O)c3ncccc13)[n+]2C
inactive: dose: 75.0 mg/kg/injection, schedule: Q01DX001 (ip), vehicle: saline 111 % of control | dose: 150.0 mg/kg/injection, schedule: Q01DX001 (ip), vehicle: saline 110 % of control | dose: 300.0 mg/kg/injection, schedule: Q01DX001 (ip), vehicle: saline 117 % of control

CCC(CC)NC(CC)CO (stereo not given)
inactive: dose: 75.0 mg/kg/injection, schedule: Q01DX001 (ip), vehicle: carboxymethylcellulose (CMC) 101 % of control | dose: 150.0 mg/kg/injection, schedule: Q01DX001 (ip), vehicle: carboxymethylcellulose (CMC) 100 % of control
